# Results: US20230130925A1 (priority 2020, published 2023)
# Like-named read-outs stand apart in the source and are kept apart here.
# B1: Sarilumab: anti-IL-6 receptor antibody molecule (antibody, chains of the INN, looked up, V domains shown)
# VH: EVQLVESGGGLVQPGRSLRLSCAASRFTFDDYAMHWVRQAPGKGLEWVSGISWNSGRIGYADSVKGRFTISRDNAENSLFLQMNGLRAEDTALYYCAKGRDSFDIWGQGTMVTVSS
# VL: DIQMTQSPSSVSASVGDRVTITCRASQGISSWLAWYQQKPGKAPKLLIYGASSLESGVPSRFSGSGSGTDFTLTISSLQPEDFASYYCQQANSFPYTFGQGTKLEIK
# Tests used:
# [1] = test system: Influenza A
# [2] = test system: SARS-cov2; settings: person
molecule,measurement,setting,value
"Cc1nc(Nc2ncc(C(=O)Nc3c(C)cccc3Cl)s2)cc(N2CCN(CCO)CC2)n1 [Dasatinib, reference compound]",tolerability,"[1]; human, in vivo, po",tolerates the medication well
Tocilizumab: anti-IL-6 receptor antibody molecule,clinical course,"[2]; COPD and diabetes, O2 saturation 87%, Tocilizumab 8 mg/Kg by auto-injector",stabilization
same,patient's condition,"[2]; fever >38.5° C., O2 saturation 92%, Tocilizumab 8 mg/Kg intravenous infusion",condition stabilizes initially
same,tolerability,[2]; Tocilizumab 8 mg/Kg by auto-injector,tolerates the medication well
same,renal and neurological status,"[1]; person with ARDS and shock, after Tocilizumab 600 mg i.v.",continues to have renal and neurological deterioration
B1,tolerability,"[2]; COPD and hypertension, O2 saturation 89%, Sarilumab 200 mg subcutaneous, self-administered",tolerates the medication well
